Results reported in patent US6222035A, “[1,2,4] triazolo [1,5-C] pyrimidine derivatives” (Kyowa Hakko Kogyo Co., Ltd., priority 1997, dated 2001).

Tested on: CGS 21680-induced catalepsy in mice
Experiment: Activity on CGS 21680-induced Catalepsy
Format: in vivo, mouse (male ddY)
Conditions: 10 mg/kg oral; for Total score (catalepsy): 10 animals, maximum 50 points, control 48; for Number of Animals showing remission: catalepsy score 4 points or less in 10 cases; for inhibition in vivo at 10 mg/kg: Mus musculus, CGS 21680-induced catalepsy, read-out: Remission ratio (%)
Description: Activity on CGS 21680-induced Catalepsy
Parkinson's disease is motor deficit based on the degeneration and cell death of the nigrostriatal dopaminergic neuron. […] [Journal of Neuroscience, 16: 605 (1996)]. Accordingly, it is considered that adenosine A2A receptor agonists positively regulate the output of the striopallidal GABAergic neurons and, as a result, catalepsy is induced by the administration of CGS 21680.
This test was carried out using 10 animals per group of male ddY mice of 5 week age (22 to 25 g in body weight, Japan SLC). CGS 21680 (manufactured by RBI) was dissolved in a physiological saline (manufactured by Otsuka Pharmaceutical), and 10 μg/20 μl of the solution was injected into mouse intracerebro-ventricle. Test compounds were used by suspending them in distilled water containing 0.3% of polyoxyethylene(20)sorbitan monooleate (hereinafter referred to as "Tween 80") (manufactured by Otsuka Pharmaceutical). […] One hour after the administration of the test compound, only forelimbs or only hindlimbs of each animal were laid on a vertically arranged stand made of acryl, having a size of 4.5 cm in height and 1.0 cm in width, to measure catalepsy symptoms. All of the compounds were administered orally in a dose of 10 mg/kg.
The effect was judged by total catalepsy scores of 10 animals in one group (the maximum is 50 points). When the total score was 40 points or less, the activity of drugs was judged positive. The number of animals showing remission of catalepsy was expressed by the number of cases in which the catalepsy score was 4 points or less in 10 cases. The catalepsy remission ratio was expressed as the percentage of the total score in the test compound-administered group to the total score in the control group.

Structure (SMILES) | Total score (catalepsy) | Number of Animals showing remission | inhibition in vivo at 10 mg/kg [%]
Nc1nc(N2CCN(Cc3ccsc3)CC2)cc2nc(-c3ccco3)nn12 [Compound 146] | 3 | 10 | 94
COCCOCCN1CCN(c2cc3nc(-c4ccco4)nn3c(N)n2)CC1 [Compound 104, 5-Amino-2-(2-furyl)-7-(4-(2-(2-methoxyethoxy)ethyl)piperazinyl)[1,2,4]triazolo[1,5-c]pyrimidine] | 4 | 10 | 92
Nc1nc(SCc2ccccc2C=O)cc2nc(-c3ccco3)nn12 [Compound 213, 5-Amino-7-(2-formylbenzylthio)-2-(2-furyl)[1,2,4]triazolo[1,5-c]pyrimidine] | 15 | 10 | 70
CCC(C)N1CCN(c2cc3nc(-c4ccco4)nn3c(N)n2)CC1 (racemic) [Compound 140, (±)-5-Amino-2-(2-furyl)-7-(4-(1-methylpropyl)piperazinyl)[1,2,4]triazolo[1,5-c]pyrimidine] | 13 | 10 | 74
COCCN1CCN(c2cc3nc(-c4ccco4)nn3c(N)n2)CC1 [Compound 74, 5-Amino-7-[4-(2-methoxyethyl)piperazinyl]-2-(2-furyl)[1,2,4]triazolo[1,5-c]pyrimidine] | 0 | 10 | 98
Nc1nc(N2CCN(CCCCF)CC2)cc2nc(-c3ccco3)nn12 [Compound 128, 5-Amino-7-(4-(4-fluorobutyl)piperazinyl)-2-(2-furyl)[1,2,4]triazolo[1,5-c]pyrimidine] | 9 | 10 | 80
Nc1ncc(C(=O)N2CCCCC2)c2nc(-c3ccco3)nn12 [Compound 175] | 12 | 10 | 74
CC(C)CN1CCN(c2cc3nc(-c4ccco4)nn3c(N)n2)CC1 [Compound 136, 5-Amino-2-(2-furyl)-7-(4-(2-methylpropyl)piperazinyl)[1,2,4]triazolo[1,5-c]pyrimidine] | 1 | 10 | 98
Nc1ncc(C(=O)N2CCOCC2)c2nc(-c3ccco3)nn12 [Compound 177] | 13 | 9 | 72
Nc1nc(SCc2ccncc2)cc2nc(-c3ccco3)nn12 [Compound 181, 5-Amino-2-(2-furyl)-7-(4-picolylthio)[1,2,4]triazolo[1,5-c]pyrimidine] | 14 | 8 | 72
C=CCCN1CCN(c2cc3nc(-c4ccco4)nn3c(N)n2)CC1 [Compound 125, 5-Amino-2-(2-furyl)-7-(4-homoallylpiperazinyl)[1,2,4]triazolo[1,5-c]pyrimidine] | 13 | 10 | 74
CCN1CCN(c2cc3nc(-c4ccco4)nn3c(N)n2)CC1 [Compound 60, 5-Amino-7-(4-ethylpiperazinyl)-2-(2-furyl)[1,2,4]triazolo[1,5-c]pyrimidine] | 10 | 8 | 76
Nc1nc(SCc2ccccc2F)cc2nc(-c3ccco3)nn12 [Compound 201, 5-Amino-7-(2-fluorobenzylthio)-2-(2-furyl)[1,2,4]triazolo[1,5-c]pyrimidine] | 10 | 10 | 78
Nc1ncc(C=O)c2nc(-c3ccco3)nn12 [Compound 163, 5-Amino-8-formyl-2-(2-furyl)[1,2,4]triazolo[1,5-c]pyrimidine] | 3 | 10 | 94
Nc1nc(N2CCN(Cc3csnn3)CC2)cc2nc(-c3ccco3)nn12 [Compound 143, 5-Amino-2-(2-furyl)-7-(4-(1,2,3-thiadiazol-4-ylmethyl)piperazinyl)-2-(2-furyl)[1,2,4]triazolo[1,5-c]pyrimidine] | 0 | 10 | 98
Nc1nc(Oc2ccc(Br)cc2)cc2nc(-c3ccco3)nn12 [Compound 228] | 14 | 8 | 72
COCCN1CCN(c2nc(N)n3nc(-c4ccco4)nc3c2C)CC1 [Compound 223, 5-Amino-2-(2-furyl)-7-(4-(2-methoxyethyl)piperazinyl)-8-methyl[1,2,4]triazolo[1,5-c]pyrimidine] | 15 | 9 | 68
Nc1nc(N2CCN(CCO)CC2)cc2nc(-c3ccco3)nn12 [Compound 62, 5-Amino-2-(2-furyl)-7-[4-(2-hydroxyethyl)piperazinyl][1,2,4]triazolo[1,5-c]pyrimidine] | 4 | 10 | 88
Nc1nc(SCc2ccccc2Cl)cc2nc(-c3ccco3)nn12 [Compound 200, 5-Amino-7-(2-chlorobenzylthio)-2-(2-furyl)[1,2,4]triazolo[1,5-c]pyrimidine] | 14 | 9 | 70
Cc1c(N2CCN(CCO)CC2)nc(N)n2nc(-c3ccco3)nc12 [Compound 222, 5-Amino-2-(2-furyl)-7-(4-(2-hydroxyethyl)piperazinyl)-8-methyl[1,2,4]triazolo[1,5-c]pyrimidine] | 9 | 10 | 80
COC(=O)c1ccc(CSc2cc3nc(-c4ccco4)nn3c(N)n2)cc1 [Compound 190, 5-Amino-2-(2-furyl)-7-(4-methoxycarbonylbenzylthio)[1,2,4]triazolo[1,5-c]pyrimidine] | 13 | 10 | 72
CC(C)N1CCN(c2cc3nc(-c4ccco4)nn3c(N)n2)CC1 [Compound 139, 5-Amino-2-(2-furyl)-7-(4-isopropylpiperazinyl)[1,2,4]triazolo[1,5-c]pyrimidine] | 10 | 9 | 80
